Source: ChEMBL document CHEMBL4152191, “New potent and selective A1 adenosine receptor antagonists as potential tools for the treatment of gastrointestinal diseases” (Eur J Med Chem, 2018)
Activity calls are given as the source filed them. The calls are words filed in the database; no cut-off is given here.

Key:
Adenosine receptor A1 [1] = molecular target: T1, Adenosine receptor A1 (Homo sapiens, UniProt P30542); assay: Displacement of [3H]CCPA from recombinant human adenosine A1 receptor transfected in CHO cell membranes after 3 hrs by microbeta scintillation counting analysis
T1 sequence (P30542 whole entry): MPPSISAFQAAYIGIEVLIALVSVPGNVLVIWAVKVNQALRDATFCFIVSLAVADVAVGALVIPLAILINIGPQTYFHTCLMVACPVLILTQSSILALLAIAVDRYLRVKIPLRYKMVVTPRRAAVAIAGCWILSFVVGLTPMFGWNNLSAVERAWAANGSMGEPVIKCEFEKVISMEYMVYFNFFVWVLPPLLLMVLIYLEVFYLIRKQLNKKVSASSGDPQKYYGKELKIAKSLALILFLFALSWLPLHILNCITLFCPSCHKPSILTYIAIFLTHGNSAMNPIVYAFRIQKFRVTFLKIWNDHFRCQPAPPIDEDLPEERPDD

Adenosine receptor A2a = Adenosine receptor A2a (Homo sapiens, UniProt P29274); assay: Displacement of [3H]NECA from recombinant human adenosine A2A receptor transfected in CHO cell membranes after 3 hrs by microbeta scintillation counting analysis
Chain of Adenosine receptor A2a (P29274 whole entry): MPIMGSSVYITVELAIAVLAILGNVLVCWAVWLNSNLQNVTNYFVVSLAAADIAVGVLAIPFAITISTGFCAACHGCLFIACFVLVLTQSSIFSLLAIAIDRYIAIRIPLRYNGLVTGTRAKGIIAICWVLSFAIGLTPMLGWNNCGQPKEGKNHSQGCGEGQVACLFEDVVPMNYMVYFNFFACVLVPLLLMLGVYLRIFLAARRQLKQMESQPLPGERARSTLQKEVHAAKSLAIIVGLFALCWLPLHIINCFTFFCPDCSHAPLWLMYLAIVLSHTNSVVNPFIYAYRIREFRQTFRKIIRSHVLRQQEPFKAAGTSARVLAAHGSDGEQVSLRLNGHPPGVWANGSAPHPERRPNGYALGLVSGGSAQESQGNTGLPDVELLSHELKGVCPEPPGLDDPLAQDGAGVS

Adenosine receptor A2b = molecular target: T2, Adenosine receptor A2b (Homo sapiens, UniProt P29275); assay: Antagonist activity at recombinant human adenosine A2B receptor expressed in CHO cells assessed as inhibition of NECA-induced adenylyl cyclase activity after 20 mins by [alpha-32P]ATP assay; assay type: functional, cell-based
T2 sequence (P29275 whole entry): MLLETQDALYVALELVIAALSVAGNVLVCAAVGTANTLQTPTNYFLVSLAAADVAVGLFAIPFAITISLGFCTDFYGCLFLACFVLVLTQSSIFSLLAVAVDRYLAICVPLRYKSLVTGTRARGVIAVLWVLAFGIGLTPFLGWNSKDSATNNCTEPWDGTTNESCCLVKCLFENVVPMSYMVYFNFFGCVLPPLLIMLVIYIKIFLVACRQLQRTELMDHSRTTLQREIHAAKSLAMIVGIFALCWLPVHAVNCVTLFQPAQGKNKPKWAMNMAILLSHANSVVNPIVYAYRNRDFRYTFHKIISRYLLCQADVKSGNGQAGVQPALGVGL

Adenosine receptor A3 = molecular target: T3, Adenosine receptor A3 (Homo sapiens, UniProt P0DMS8); assay: Displacement of [3H]NECA from recombinant human adenosine A3 receptor transfected in CHO cell membranes after 3 hrs by microbeta scintillation counting analysis
T3 sequence (P0DMS8 whole entry): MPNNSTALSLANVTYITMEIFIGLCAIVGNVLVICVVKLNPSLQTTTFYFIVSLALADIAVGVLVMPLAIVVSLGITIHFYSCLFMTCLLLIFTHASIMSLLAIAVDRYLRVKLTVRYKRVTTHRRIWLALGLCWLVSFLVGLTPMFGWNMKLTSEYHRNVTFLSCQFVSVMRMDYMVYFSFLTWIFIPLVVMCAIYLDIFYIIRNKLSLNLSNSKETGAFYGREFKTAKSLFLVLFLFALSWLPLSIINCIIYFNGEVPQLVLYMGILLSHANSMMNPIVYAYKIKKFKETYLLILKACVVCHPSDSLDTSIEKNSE

Homo sapiens [2] = species: Homo sapiens; assay: Selectivity index, ratio of Ki for recombinant human adenosine A2A receptor to Ki for recombinant human adenosine A1 receptor
Homo sapiens [3] = species: Homo sapiens; assay: Selectivity index, ratio of Ki for recombinant human adenosine A2B receptor to Ki for recombinant human adenosine A1 receptor
[4] = molecular target: Adenosine receptors; A1 & A3 (Homo sapiens) (UniProt P30542+P0DMS8); assay: Selectivity index, ratio of Ki for recombinant human adenosine A3 receptor to Ki for recombinant human adenosine A1 receptor
Adenosine receptor A1 [5] = molecular target: T1, Adenosine receptor A1; assay: Antagonist activity at recombinant human adenosine A1 receptor transfected in CHO cells assessed as inhibition of CCPA-induced cAMP accumulation preincubated for 10 mins followed by CCPA addition by GloSensor cAMP assay; assay type: functional, cell-based
[6] = molecular target: T4, Adenosine receptor A1 (Mus musculus) (UniProt Q60612); assay: Antagonist activity at adenosine A1 receptor in BALB/C mouse ileum assessed as reversal of CCPA-induced reduction in rhythmic spontaneous contractions at 1 uM after 1 hr; assay type: functional
T4 sequence (whole entry): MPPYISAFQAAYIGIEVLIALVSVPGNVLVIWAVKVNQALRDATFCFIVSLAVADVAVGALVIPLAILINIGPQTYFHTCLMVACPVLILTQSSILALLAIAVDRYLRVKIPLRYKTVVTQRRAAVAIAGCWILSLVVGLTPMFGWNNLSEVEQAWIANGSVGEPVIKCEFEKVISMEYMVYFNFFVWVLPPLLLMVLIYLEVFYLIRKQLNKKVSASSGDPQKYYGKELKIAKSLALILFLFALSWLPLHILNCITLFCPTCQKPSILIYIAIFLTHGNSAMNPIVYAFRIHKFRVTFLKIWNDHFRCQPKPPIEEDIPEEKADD

[7] = molecular target: T4, Adenosine receptor A1 (Mus musculus); assay: Activity at adenosine A1 receptor in BALB/C mouse ileum assessed as effect on amplitude of rhythmic spontaneous contractions at 1 uM after 1 hr; assay type: functional
[8] = molecular target: T4, Adenosine receptor A1 (Mus musculus); assay: Activity at adenosine A1 receptor in BALB/C mouse ileum assessed as effect on frequency of rhythmic spontaneous contractions at 1 uM after 1 hr; assay type: functional
[9] = molecular target: T4, Adenosine receptor A1 (Mus musculus); assay: Antagonist activity at adenosine A1 receptor in BALB/C mouse ileum assessed as reversal of 1 uM CCPA-induced reduction in rhythmic spontaneous contractions by measuring tissue response at 1 uM after 1 hr (reference value: 20%); assay type: functional; set-up: scale not given: the % may be the effect or the level left
[10] = molecular target: T4, Adenosine receptor A1 (Mus musculus); assay: Antagonist activity at adenosine A1 receptor in BALB/C mouse ileum assessed as reversal of 0.1 uM CCPA-induced reduction in rhythmic spontaneous contractions by measuring tissue response at 1 uM after 1 hr (reference value: 65%); assay type: functional; set-up: scale not given: the % may be the effect or the level left
[11] = molecular target: T4, Adenosine receptor A1 (Mus musculus); assay: Reversible antagonist activity at adenosine A1 receptor in BALB/C mouse ileum assessed as reversal of CCPA-induced reduction in rhythmic spontaneous contractions at 1 uM incubated for 1 hr measured after compound wash out; assay type: functional

Row | SMILES | Ki (Adenosine receptor A1 [1]) | Ki (Adenosine receptor A2a) | Ki (Adenosine receptor A2b) | Ki (Adenosine receptor A3) | Ratio Ki (Homo sapiens [2]) | Ratio Ki (Homo sapiens [3]) | Ratio Ki [4] | IC50 (Adenosine receptor A1 [5]) | Kb [6] | Activity [7] | Activity [8] | Activity [9] | Activity [10] | inhibition [11]
1 | Cn1c(-c2cccnc2)nc2c(NC3CCCC3)ncnc21 | 242 nM | 6330 nM | > 30000 nM | 11000 nM | 26 | > 124 | 45 | – | – | – | – | – | – | –
2 | CCn1c(-c2ccccc2)nc2c(NC3CCCC3)ncnc21 | 3.9 nM | 334 nM | 5790 nM | 354 nM | 86 | 1480 | 91 | – | – | – | – | – | – | –
3 | Cn1c(-c2ccccc2)nc2c(NC3CCC3)ncnc21 | 3.2 nM | 303 nM | 3730 nM | 280 nM | 95 | 1170 | 88 | – | – | – | – | – | – | –
4 | CCCn1c(-c2ccccc2)nc2c(N)ncnc21 | 101 nM | 492 nM | 1040 nM | 9280 nM | 5 | 10 | 92 | – | – | – | – | – | – | –
5 | Cn1c(-c2ccc(O)cc2)nc2c(NC3CCCC3)ncnc21 | 17 nM | 532 nM | 17800 nM | 521 nM | 31 | 1050 | 31 | 52 nM | 66 nM | inactive | inactive | – | – | –
6 | Cc1cccc(-c2nc3c(NC4CCCC4)ncnc3n2C)c1 | 6.2 nM | 450 nM | 6030 nM | 510 nM | 73 | 973 | 82 | 43 nM | 33 nM | inactive | inactive | – | – | –
7 | Cn1c(-c2cccc(Cl)c2)nc2c(NC3CCCC3)ncnc21 | 6.5 nM | 267 nM | 2530 nM | 514 nM | 41 | 389 | 79 | – | – | – | – | – | – | –
8 | CCn1c(-c2ccccc2)nc2c(NC3CCC3)ncnc21 | 6 nM | 379 nM | 1440 nM | 84 nM | 63 | 240 | 14 | – | – | – | – | – | – | –
9 | Cn1c(-c2ccc(Cl)cc2)nc2c(NC3CCCC3)ncnc21 | 18 nM | 1820 nM | > 30000 nM | 1210 nM | 101 | > 1670 | 67 | – | – | – | – | – | – | –
10 | Cn1c(-c2ccccc2)nc2c(NC3CCCC3)ncnc21 | 2.8 nM | 498 nM | 8510 nM | 846 nM | 178 | 3040 | 302 | 14 nM | 17 nM | inactive | inactive | 75% | 100% | Active
11 | Cc1ccc(-c2nc3c(NC4CCCC4)ncnc3n2C)cc1 | 8 nM | 1800 nM | > 30000 nM | 480 nM | 225 | > 3750 | 60 | 61 nM | 177 nM | inactive | inactive | – | – | –
12 | CCn1c(-c2ccccc2)nc2c(N)ncnc21 | 31 nM | 212 nM | 3020 nM | 5780 nM | 7 | 97 | 186 | – | – | – | – | – | – | –
13 | CCCn1c(-c2ccccc2)nc2c(NC3CCCC3)ncnc21 | 10 nM | 634 nM | 3430 nM | 749 nM | 63 | 343 | 75 | – | – | – | – | – | – | –
